Results from PubChem BioAssay (NCI).
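Interpolation was linear, between the two tested concentrations surrounding the appropriate level; five concentrations were tested over 48 hours in 96-well plates. TGI: concentration producing complete growth inhibition.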

How the values were obtained:
Assay in all cases: NCI tumour cell line growth inhibition, 48 h
786-0 renal = system: 786-0 renal
A498 renal = system: A498 renal
A549 NSCLC = system: A549 NSCLC
ACHN renal = system: ACHN renal
BT-549 breast = system: BT-549 breast
CAKI-1 renal = system: CAKI-1 renal
CCRF-CEM leukemia = system: CCRF-CEM leukemia
COLO 205 colon = system: COLO 205 colon
DU-145 prostate = system: DU-145 prostate
EKVX NSCLC = system: EKVX NSCLC
HCC-2998 colon = system: HCC-2998 colon
HCT-116 colon = system: HCT-116 colon
HCT-15 colon = system: HCT-15 colon
HL-60(TB) leukemia = system: HL-60(TB) leukemia
HOP-62 NSCLC = system: HOP-62 NSCLC
HOP-92 NSCLC = system: HOP-92 NSCLC
HS 578T breast = system: HS 578T breast
HT29 colon = system: HT29 colon
IGROV1 ovarian = system: IGROV1 ovarian
K-562 leukemia = system: K-562 leukemia
KM12 colon = system: KM12 colon
LOX IMVI melanoma = system: LOX IMVI melanoma
M14 melanoma = system: M14 melanoma
MALME-3M melanoma = system: MALME-3M melanoma
MCF7 breast = system: MCF7 breast
MDA-MB-231 breast = system: MDA-MB-231 breast
MDA-MB-435 = system: MDA-MB-435
MDA-N = system: MDA-N
MOLT-4 leukemia = system: MOLT-4 leukemia
NCI-H226 lung = system: NCI-H226 lung
NCI-H23 lung = system: NCI-H23 lung
NCI-H460 lung = system: NCI-H460 lung
NCI-H522 lung = system: NCI-H522 lung
NCI/ADR-RES ovarian = system: NCI/ADR-RES ovarian
OVCAR-3 ovarian = system: OVCAR-3 ovarian
OVCAR-4 ovarian = system: OVCAR-4 ovarian
OVCAR-5 ovarian = system: OVCAR-5 ovarian
OVCAR-8 ovarian = system: OVCAR-8 ovarian
PC-3 prostate = system: PC-3 prostate
RPMI-8226 leukemia = system: RPMI-8226 leukemia
RXF 393 renal = system: RXF 393 renal
SF-268 CNS = system: SF-268 CNS
SF-295 CNS = system: SF-295 CNS
SF-539 CNS = system: SF-539 CNS
SK-MEL-2 melanoma = system: SK-MEL-2 melanoma
SK-MEL-28 melanoma = system: SK-MEL-28 melanoma
SK-MEL-5 melanoma = system: SK-MEL-5 melanoma
SK-OV-3 ovarian = system: SK-OV-3 ovarian
SN12C renal = system: SN12C renal
SNB-19 CNS = system: SNB-19 CNS
SNB-75 CNS = system: SNB-75 CNS
SR leukemia = system: SR leukemia
SW-620 colon = system: SW-620 colon
T-47D breast = system: T-47D breast
TK-10 renal = system: TK-10 renal
U251 CNS = system: U251 CNS
UACC-257 melanoma = system: UACC-257 melanoma
UACC-62 melanoma = system: UACC-62 melanoma
UO-31 renal = system: UO-31 renal
DLD-1 colon = system: DLD-1 colon
LXFL 529 NSCLC = system: LXFL 529 NSCLC
M19-MEL melanoma = system: M19-MEL melanoma

CC(C)[Si]1(C(C)C)OCC2OC(n3c(C(=O)c4ccccc4)cc(=O)[nH]c3=O)CC2O[Si](C(C)C)(C(C)C)O1 (stereo unspecified)
TGI (786-0 renal): 9.87 µM
TGI (A498 renal): 24.8 µM
TGI (A549 NSCLC): 20.5 µM
TGI (ACHN renal): 8.58 µM
TGI (BT-549 breast): 16.5 µM
TGI (CAKI-1 renal): 17.9 µM
TGI (CCRF-CEM leukemia): 5.12 µM
TGI (COLO 205 colon): 10.8 µM
TGI (DU-145 prostate): 24.6 µM
TGI (EKVX NSCLC): 14.6 µM
TGI (HCC-2998 colon): 3.41 µM
TGI (HCT-116 colon): 9.95 µM
TGI (HCT-15 colon): 7.89 µM
TGI (HL-60(TB) leukemia): > 28.6 µM
TGI (HOP-62 NSCLC): 21.3 µM
TGI (HOP-92 NSCLC): 7.14 µM
TGI (HS 578T breast): 5.5 µM
TGI (HT29 colon): 4.22 µM
TGI (IGROV1 ovarian): 10.1 µM
TGI (K-562 leukemia): > 100 µM
TGI (KM12 colon): 8.51 µM
TGI (LOX IMVI melanoma): 3.93 µM
TGI (M14 melanoma): 14.4 µM
TGI (MALME-3M melanoma): 13.1 µM
TGI (MCF7 breast): 8.14 µM
TGI (MDA-MB-231 breast): 5.67 µM
TGI (MDA-MB-435): 10.4 µM
TGI (MDA-N): 11.7 µM
TGI (MOLT-4 leukemia): 4.76 µM
TGI (NCI-H226 lung): 5.87 µM
TGI (NCI-H23 lung): 6.13 µM
TGI (NCI-H460 lung): 15.9 µM
TGI (NCI-H522 lung): 3.55 µM
TGI (NCI/ADR-RES ovarian): 26.8 µM
TGI (OVCAR-3 ovarian): 5.09 µM
TGI (OVCAR-4 ovarian): 8.36 µM
TGI (OVCAR-5 ovarian): 10.1 µM
TGI (OVCAR-8 ovarian): 4.43 µM
TGI (PC-3 prostate): 6.22 µM
TGI (RPMI-8226 leukemia): > 23.3 µM
TGI (RXF 393 renal): 7.37 µM
TGI (SF-268 CNS): 8.26 µM
TGI (SF-295 CNS): 13.8 µM
TGI (SF-539 CNS): 8.6 µM
TGI (SK-MEL-2 melanoma): 10.6 µM
TGI (SK-MEL-28 melanoma): 15 µM
TGI (SK-MEL-5 melanoma): 14 µM
TGI (SK-OV-3 ovarian): 27.2 µM
TGI (SN12C renal): 5.5 µM
TGI (SNB-19 CNS): 22.4 µM
TGI (SNB-75 CNS): 6.7 µM
TGI (SR leukemia): > 23.8 µM
TGI (SW-620 colon): 8.32 µM
TGI (T-47D breast): 16 µM
TGI (TK-10 renal): 9.23 µM
TGI (U251 CNS): 9.85 µM
TGI (UACC-257 melanoma): 6.04 µM
TGI (UACC-62 melanoma): 7.62 µM
TGI (UO-31 renal): 6.98 µM

CC(=O)Nc1ccc(C(=O)NN2C(=O)C(Cl)C2c2cccc([N+](=O)[O-])c2)cc1 (stereo unspecified)
TGI (A549 NSCLC): > 100 µM
TGI (ACHN renal): > 100 µM
TGI (CCRF-CEM leukemia): > 100 µM
TGI (COLO 205 colon): > 100 µM
TGI (DLD-1 colon): > 100 µM
TGI (HCC-2998 colon): > 100 µM
TGI (HCT-116 colon): > 100 µM
TGI (HL-60(TB) leukemia): > 100 µM
TGI (HOP-62 NSCLC): > 100 µM
TGI (HOP-92 NSCLC): > 100 µM
TGI (HT29 colon): > 100 µM
TGI (IGROV1 ovarian): > 100 µM
TGI (K-562 leukemia): > 100 µM
TGI (KM12 colon): > 100 µM
TGI (LXFL 529 NSCLC): > 100 µM
TGI (M19-MEL melanoma): > 100 µM
TGI (MALME-3M melanoma): > 100 µM
TGI (MOLT-4 leukemia): > 100 µM
TGI (NCI-H226 lung): > 100 µM
TGI (NCI-H23 lung): > 100 µM
TGI (NCI-H460 lung): > 100 µM
TGI (NCI-H522 lung): > 100 µM
TGI (OVCAR-3 ovarian): > 100 µM
TGI (OVCAR-5 ovarian): > 100 µM
TGI (OVCAR-8 ovarian): > 100 µM
TGI (RPMI-8226 leukemia): > 100 µM
TGI (SF-268 CNS): > 100 µM
TGI (SF-295 CNS): > 100 µM
TGI (SF-539 CNS): > 100 µM
TGI (SK-MEL-2 melanoma): > 100 µM
TGI (SK-MEL-28 melanoma): > 100 µM
TGI (SK-MEL-5 melanoma): > 100 µM
TGI (SK-OV-3 ovarian): > 100 µM
TGI (SNB-19 CNS): > 100 µM
TGI (SNB-75 CNS): > 100 µM
TGI (SR leukemia): > 100 µM
TGI (SW-620 colon): > 100 µM
TGI (TK-10 renal): > 100 µM
TGI (U251 CNS): > 100 µM
TGI (UACC-257 melanoma): > 100 µM
TGI (UACC-62 melanoma): > 100 µM
TGI (UO-31 renal): > 100 µM
